Experimental data taken from ChEMBL document CHEMBL1201862, “PubChem BioAssay data set” (2004).
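Five concentrations, 48 hours, 96-well plates. GI50 marks 50% less growth.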 Active and inactive are the calls of the source. No stated cut-off is given here; in the data, active = GI50 up to about 1.1 µM and inactive = higher.

How the values were obtained:
Assay in all cases: NCI-60 cell line screen, 48 h
ACHN = system: ACHN
CAKI-1 = system: CAKI-1
CCRF-CEM = system: CCRF-CEM
COLO 205 = system: COLO 205
EKVX = system: EKVX
HCC 2998 = system: HCC 2998
HCT-116 = system: HCT-116
HL-60 = system: HL-60
IGROV-1 = system: IGROV-1
Malme-3M = system: Malme-3M
NCI-H460 = system: NCI-H460
OVCAR-5 = system: OVCAR-5
OVCAR-8 = system: OVCAR-8
SF-268 = system: SF-268
SN12C = system: SN12C
SW-620 = system: SW-620
UACC-62 = system: UACC-62
UO-31 = system: UO-31
TK-10 = system: TK-10

Measured: GI50

COc1ccc(-c2onc(-c3c(C)cc(C)cc3C)c2C2=NCCCN2)cc1
inactive: ACHN 64.1 µM | CAKI-1 13.6 µM | CCRF-CEM 35 µM | COLO 205 27.7 µM | EKVX 96.8 µM | HCC 2998 > 100 µM | HCT-116 28 µM | HL-60 15.1 µM | IGROV-1 > 100 µM | Malme-3M 41.9 µM | NCI-H460 32.1 µM | OVCAR-5 > 100 µM | OVCAR-8 58.9 µM | SF-268 36.7 µM | SN12C 50.8 µM | SW-620 46.2 µM | UACC-62 55.2 µM | UO-31 21.1 µM

COc1ccc(CC(=O)NCCc2ccc(OC)c(OC)c2OC)cc1
inactive: ACHN > 100 µM | CCRF-CEM > 100 µM | EKVX > 100 µM | HCC 2998 > 100 µM | HCT-116 > 100 µM | IGROV-1 > 100 µM | Malme-3M > 100 µM | NCI-H460 > 100 µM | OVCAR-5 > 100 µM | OVCAR-8 > 100 µM | SF-268 > 100 µM | SN12C > 100 µM | SW-620 > 100 µM | TK-10 > 100 µM | UO-31 > 100 µM

O/N=C(\C=N\O)c1ccc2c(c1)Sc1ccccc1O2
inactive: ACHN 19.9 µM | CAKI-1 23.8 µM | CCRF-CEM 2.39 µM | COLO 205 21.4 µM | EKVX 16.5 µM | HCC 2998 23.4 µM | HCT-116 18 µM | HL-60 20.9 µM | Malme-3M 29.5 µM | NCI-H460 23.7 µM | OVCAR-5 31.7 µM | OVCAR-8 22.8 µM | SF-268 16.8 µM | SN12C 17.5 µM | SW-620 22.9 µM | TK-10 31.4 µM | UACC-62 18.1 µM | UO-31 21.4 µM

O=S1(=O)OCCOS(=O)(=O)C1(Cl)Cl
inactive: CAKI-1 47 µM | CCRF-CEM 54.2 µM | COLO 205 > 100 µM | EKVX > 100 µM | HCC 2998 > 100 µM | HCT-116 > 100 µM | HL-60 42 µM | IGROV-1 > 100 µM | Malme-3M > 100 µM | OVCAR-8 > 100 µM | SF-268 43.5 µM | SN12C > 100 µM | SW-620 > 100 µM | TK-10 > 100 µM | UACC-62 31.3 µM | UO-31 99.8 µM

O=c1oc(-c2ccc(O)cc2)cc2cc(O)ccc12
inactive: ACHN 34.9 µM | CAKI-1 29.1 µM | CCRF-CEM 20.4 µM | COLO 205 20.2 µM | EKVX 31.9 µM | HCC 2998 23.1 µM | HCT-116 21.2 µM | HL-60 18.5 µM | IGROV-1 19.9 µM | Malme-3M 30.1 µM | NCI-H460 22.6 µM | OVCAR-5 43.2 µM | OVCAR-8 41.9 µM | SF-268 26.5 µM | SN12C 17.2 µM | SW-620 25.7 µM | TK-10 41.6 µM | UO-31 13.3 µM

Cn1ccc(C(=O)NCCN(CCNC(=O)c2ccn(C)c(=O)c2O)CCNC(=O)c2cccc(=O)n2O)c(O)c1=O
inactive: ACHN > 100 µM | CAKI-1 > 100 µM | CCRF-CEM > 100 µM | COLO 205 > 100 µM | HCC 2998 > 100 µM | HCT-116 > 100 µM | HL-60 > 100 µM | IGROV-1 29.2 µM | Malme-3M > 100 µM | NCI-H460 > 100 µM | OVCAR-5 > 100 µM | OVCAR-8 > 100 µM | SF-268 > 100 µM | SN12C > 100 µM | SW-620 > 100 µM | UACC-62 > 100 µM | UO-31 > 100 µM

CCO/C=C1\N=C(c2ccccc2Br)OC1=O
inactive: ACHN > 100 µM | CAKI-1 > 100 µM | CCRF-CEM > 100 µM | COLO 205 > 100 µM | EKVX > 100 µM | HCC 2998 > 100 µM | HL-60 > 100 µM | Malme-3M > 100 µM | NCI-H460 > 100 µM | OVCAR-5 > 100 µM | OVCAR-8 > 100 µM | SF-268 > 100 µM | SN12C > 100 µM | SW-620 > 100 µM | TK-10 > 100 µM | UACC-62 > 100 µM | UO-31 > 100 µM

CCOC(=O)C(CC(C)C)NC(=O)CSc1nnc(COc2ccc(Cl)cc2)n1-c1ccccc1 (stereo not drawn)
inactive: ACHN 13.3 µM | CCRF-CEM 5.08 µM | COLO 205 18.2 µM | HCC 2998 10.4 µM | HCT-116 14.8 µM | HL-60 21 µM | IGROV-1 15.4 µM | Malme-3M 19.3 µM | NCI-H460 14.9 µM | OVCAR-5 19.9 µM | SF-268 18.2 µM | SN12C 15.6 µM | SW-620 20 µM | TK-10 17.9 µM | UACC-62 16.4 µM | UO-31 1.86 µM

CCOc1ccc(NC(=O)CC2SC(Nc3ccc(C)cc3C)=NC2=O)cc1 (stereo not drawn)
inactive: ACHN > 100 µM | CAKI-1 > 100 µM | CCRF-CEM 29.2 µM | EKVX > 100 µM | HCC 2998 > 100 µM | HCT-116 > 100 µM | HL-60 43.8 µM | IGROV-1 > 100 µM | Malme-3M > 100 µM | NCI-H460 > 100 µM | OVCAR-5 > 100 µM | OVCAR-8 89.1 µM | SF-268 43.6 µM | SN12C > 100 µM | SW-620 > 100 µM | TK-10 > 100 µM | UACC-62 54.2 µM | UO-31 > 100 µM

COc1cc(C(C)c2cc3c(cc2OCCCCCOc2cc4c(cc2C(C)c2cc(OC)c(OC)c(OC)c2)OCO4)OCO3)cc(OC)c1OC (stereo not drawn)
inactive: ACHN > 100 µM | CAKI-1 > 100 µM | CCRF-CEM > 100 µM | EKVX > 100 µM | HCC 2998 > 100 µM | HCT-116 > 100 µM | HL-60 > 100 µM | IGROV-1 > 100 µM | Malme-3M > 100 µM | NCI-H460 > 100 µM | OVCAR-5 > 100 µM | OVCAR-8 > 100 µM | SF-268 > 100 µM | SN12C > 100 µM | SW-620 > 100 µM | UACC-62 > 100 µM | UO-31 > 100 µM

CN(C)[C@@H]1C(O)=C(C(=O)NCNCCCC(=O)O)C(=O)[C@@]2(O)C(O)=C3C(=O)c4c(O)cccc4[C@@](C)(O)[C@H]3C[C@@H]12
inactive: ACHN > 100 µM | CAKI-1 > 100 µM | CCRF-CEM > 100 µM | COLO 205 > 100 µM | EKVX > 100 µM | HCC 2998 > 100 µM | HCT-116 > 100 µM | HL-60 > 100 µM | IGROV-1 > 100 µM | NCI-H460 > 100 µM | OVCAR-5 > 100 µM | OVCAR-8 > 100 µM | SF-268 > 100 µM | SN12C > 100 µM | SW-620 > 100 µM | TK-10 > 100 µM | UACC-62 > 100 µM | UO-31 > 100 µM
